These results are taken from US8470820B2, “Nitrogen-containing heteroaryl derivatives” (Hoffman-La Roche Inc., priority 2010, dated 2013).

Structures are written as SMILES.

This test concerns the target human PDE10A (Homo sapiens (Human), UniProt Q9Y233). Put plainly: human PDE10A full length Scintillation Proximity Assay (SPA). The format is biochemical. To be noted: 50 nM cGMP and 50 nM [3H]-cGMP, 20 minutes at room temperature, read-out: PDE10A inhibition IC50. As for the experimental part:
The following test was carried out in order to determine the activity of the compounds of the present invention. PDE10 activity of the compounds of the present invention was determined using a Scintillation Proximity Assay (SPA)-based method similar to the one previously described (Fawcett, L. et al., Proc Natl Acad Sci USA (2000) 97(7):3702-3707).
The human PDE10A full length assay was performed in 96-well micro titer plates. The reaction mixture of 50 μl contained 20 mM HEPES pH=7.5/10 mM MgCl2/0.05 mg/ml BSA (Sigma cat. # A-7906), 50 nM cGMP (Sigma, cat. # G6129) and 50 nM [^3H]-cGMP (GE Healthcare, cat. # TRK392 S.A. 13.2Ci/mmol), 3.75 ng/well PDE10A enzyme (Enzo Life Science, Lausen, Switzerland cat # SE-534) with or without a specific test compound. A range of concentrations of the potential inhibitor was used to generate data for calculating the concentration of inhibitor resulting in 50% of the effect (e.g. IC50, the concentration of the competitor inhibiting PDE10A activity by 50%). Non-specific activity was tested without the enzyme. The reaction was initiated by the addition of the substrate solution (cGMP and [^3H]-cGMP) and allowed to progress for 20 minutes at room temperature. The reaction was terminated by adding 25 μA of YSi-SPA scintillation beads (GE Healthcare, cat. # RPNQ0150) in 18 mM zinc sulphate solution (stop reagent). After 1 h under shaking, the plate was centrifuged one minute at 170 g to allow beads to settle. Afterwards, radioactive counts were measured on a Perkin Elmer TopCount Scintillation plate reader.

human PDE10A, sequence (Q9Y233 other isoform, or with tags, fused parts or gaps): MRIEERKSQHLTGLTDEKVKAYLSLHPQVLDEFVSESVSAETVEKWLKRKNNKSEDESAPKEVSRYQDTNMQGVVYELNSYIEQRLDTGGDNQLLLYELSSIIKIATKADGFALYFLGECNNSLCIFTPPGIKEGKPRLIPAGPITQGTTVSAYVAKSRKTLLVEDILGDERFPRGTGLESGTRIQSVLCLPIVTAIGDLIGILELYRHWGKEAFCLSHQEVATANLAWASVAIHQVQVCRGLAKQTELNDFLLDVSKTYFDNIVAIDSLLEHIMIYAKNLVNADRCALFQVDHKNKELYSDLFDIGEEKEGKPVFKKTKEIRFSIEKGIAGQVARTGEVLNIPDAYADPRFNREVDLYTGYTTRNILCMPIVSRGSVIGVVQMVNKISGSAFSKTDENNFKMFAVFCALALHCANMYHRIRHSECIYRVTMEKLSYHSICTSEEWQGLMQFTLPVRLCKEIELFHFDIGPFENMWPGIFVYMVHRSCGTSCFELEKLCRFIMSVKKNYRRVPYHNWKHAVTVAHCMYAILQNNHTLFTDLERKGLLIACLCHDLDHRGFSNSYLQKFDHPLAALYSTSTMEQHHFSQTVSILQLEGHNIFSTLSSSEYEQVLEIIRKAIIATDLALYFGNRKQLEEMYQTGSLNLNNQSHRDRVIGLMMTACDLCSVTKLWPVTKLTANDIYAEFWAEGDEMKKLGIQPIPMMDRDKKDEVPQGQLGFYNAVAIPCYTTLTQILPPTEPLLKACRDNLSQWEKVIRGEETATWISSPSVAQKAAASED

On to `O=C(Nc1cc(-c2ccccn2)nn1CCN1CCOCC1)c1nc(C2CC2)ccc1Nc1cncnc1` [Example 16, 6-Cyclopropyl-3-(pyrimidin-5-ylamino)-pyridine-2-carboxylic acid [2-(2-morpholin-4-yl-ethyl)-5-pyridin-2-yl-2H-pyrazol-3-yl]-amide], for which the half-maximal inhibitory concentration (IC50) came to 2 nM.
To `O=C(Nc1cc(-c2ccccn2)nn1CCc1ccccc1)c1nc(C2CC2)ccc1Nc1cncnc1` [Example 17, 6-Cyclopropyl-3-(pyrimidin-5-ylamino)-pyridine-2-carboxylic acid (2-phenethyl-5-pyridin-2-yl-2H-pyrazol-3-yl)-amide] belongs 5 nM.
Turning to `CC(C)(C)n1nc(-c2ccccn2)cc1NC(=O)c1nc(C2CC2)ccc1Nc1cncnc1` [Example 18, 6-Cyclopropyl-3-(pyrimidin-5-ylamino)-pyridine-2-carboxylic acid (2-tert-butyl-5-pyridin-2-yl-2H-pyrazol-3-yl)-amide], the IC50 came to 13 nM.
The figure for `CCc1ccc(Nc2cncnc2)c(C(=O)Nc2cc(-c3ccccn3)nn2C)n1` [Example 19, 6-Ethyl-3-(pyrimidin-5-ylamino)-pyridine-2-carboxylic acid (2-methyl-5-pyridin-2-yl-2H-pyrazol-3-yl)-amide] is 2 nM.
As to `O=C(Nc1cc(-c2ccccn2)nn1C1CCOCC1)c1nc(C2CC2)ccc1Nc1cncnc1` [Example 20, 6-Cyclopropyl-3-(pyrimidin-5-ylamino)-pyridine-2-carboxylic acid [5-pyridin-2-yl-2-(tetrahydro-pyran-4-yl)-2H-pyrazol-3-yl]-amide], the concentration for half-maximal inhibition (IC50) is 1 nM.
Regarding `Cn1nc(-c2ccccn2)cc1NC(=O)c1nc(C2CC2)cnc1Nc1cncnc1` [Example 21, 6-Cyclopropyl-3-(pyrimidin-5-ylamino)-pyrazine-2-carboxylic acid (2-methyl-5-pyridin-2-yl-2H-pyrazol-3-yl)-amide], the half-inhibitory concentration (IC50) came out at 4 nM.
The figure for `O=C(Nc1cc(-c2ccccn2)nn1CC(F)(F)F)c1nc(C2CC2)ccc1Nc1cncnc1` [Example 22, 6-Cyclopropyl-3-(pyrimidin-5-ylamino)-pyridine-2-carboxylic acid [5-pyridin-2-yl-2-(2,2,2-trifluoro-ethyl)-2H-pyrazol-3-yl]-amide] is 2 nM; for `CCCn1nc(-c2ccccn2)cc1NC(=O)c1nc(C2CC2)ccc1Nc1cncnc1` [Example 23, 6-Cyclopropyl-3-(pyrimidin-5-ylamino)-pyridine-2-carboxylic acid (2-propyl-5-pyridin-2-yl-2H-pyrazol-3-yl)-amide] it is 2 nM; for `O=C(Nc1cc(-c2cccc(Cl)n2)nn1CCO)c1nc(C2CC2)ccc1Nc1cncnc1` [Example 24, 6-Cyclopropyl-3-(pyrimidin-5-ylamino)-pyridine-2-carboxylic acid [5-(6-chloro-pyridin-2-yl)-2-(2-hydroxy-ethyl)-2H-pyrazol-3-yl]-amide] it is 1 nM.
`O=C(Nc1cc(-c2ccc3ccccc3n2)nn1CCO)c1nc(C2CC2)ccc1Nc1cncnc1` [Example 25, 6-Cyclopropyl-3-(pyrimidin-5-ylamino)-pyridine-2-carboxylic acid [2-(2-hydroxy-ethyl)-5-quinolin-2-yl-2H-pyrazol-3-yl]-amide]: the 50% inhibitory concentration (IC50) is under 1 nM.
To `O=C(Nc1cc(-c2ccc(Cl)cn2)nn1CCO)c1nc(C2CC2)ccc1Nc1cncnc1` [Example 26, 6-Cyclopropyl-3-(pyrimidin-5-ylamino)-pyridine-2-carboxylic acid [5-(5-chloro-pyridin-2-yl)-2-(2-hydroxy-ethyl)-2H-pyrazol-3-yl]-amide] belongs 2 nM; to `CC(C)n1nc(-c2ccccn2)cc1NC(=O)c1nc(C2CC2)ccc1Nc1cncnc1` [Example 27, 6-Cyclopropyl-3-(pyrimidin-5-ylamino)-pyridine-2-carboxylic acid (2-isopropyl-5-pyridin-2-yl-2H-pyrazol-3-yl)-amide], 3 nM.
To `CC(C)Cn1nc(-c2ccccn2)cc1NC(=O)c1nc(C2CC2)ccc1Nc1cncnc1` [Example 28, 6-Cyclopropyl-3-(pyrimidin-5-ylamino)-pyridine-2-carboxylic acid (2-isobutyl-5-pyridin-2-yl-2H-pyrazol-3-yl)-amide] belongs 1 nM; to `O=C(Nc1cc(-c2ccccn2)nn1Cc1ccccc1)c1nc(C2CC2)ccc1Nc1cncnc1` [Example 29, 6-Cyclopropyl-3-(pyrimidin-5-ylamino)-pyridine-2-carboxylic acid (2-benzyl-5-pyridin-2-yl-2H-pyrazol-3-yl)-amide], 2 nM; to `CCn1nc(-c2ccccn2)cc1NC(=O)c1nc(C2CC2)ccc1Nc1cncnc1` [Example 30, 6-Cyclopropyl-3-(pyrimidin-5-ylamino)-pyridine-2-carboxylic acid (2-ethyl-5-pyridin-2-yl-2H-pyrazol-3-yl)-amide], 5 nM.
To `O=C(Nc1cc(-c2ccccn2)nn1CC1CCCC1)c1nc(C2CC2)ccc1Nc1cncnc1` [Example 31, 6-Cyclopropyl-3-(pyrimidin-5-ylamino)-pyridine-2-carboxylic acid (2-cyclopentylmethyl-5-pyridin-2-yl-2H-pyrazol-3-yl)-amide] belongs 1 nM; to `O=C(Nc1cc(-c2ccccn2)nn1CC1CCCCC1)c1nc(C2CC2)ccc1Nc1cncnc1` [Example 32, 6-Cyclopropyl-3-(pyrimidin-5-ylamino)-pyridine-2-carboxylic acid (2-cyclohexylmethyl-5-pyridin-2-yl-2H-pyrazol-3-yl)-amide], 1 nM.
With `N#CCCn1nc(-c2ccccn2)cc1NC(=O)c1nc(C2CC2)ccc1Nc1cncnc1` [Example 33, 6-Cyclopropyl-3-(pyrimidin-5-ylamino)-pyridine-2-carboxylic acid [2-(2-cyano-ethyl)-5-pyridin-2-yl-2H-pyrazol-3-yl]-amide], the half-maximal inhibitory concentration (IC50) is 170 nM.
The figure for `CCc1ccc(Nc2cncnc2)c(C(=O)Nc2cc(-c3ccccn3)nn2CCO)n1` [Example 34, 6-Ethyl-3-(pyrimidin-5-ylamino)-pyridine-2-carboxylic acid [2-(2-hydroxy-ethyl)-5-pyridin-2-yl-2H-pyrazol-3-yl]-amide] is 1 nM; for `Cc1cnc(Nc2cncnc2)c(C(=O)Nc2cc(-c3ccccn3)nn2C)n1` [Example 35, 6-Methyl-3-(pyrimidin-5-ylamino)-pyrazine-2-carboxylic acid (2-methyl-5-pyridin-2-yl-2H-pyrazol-3-yl)-amide] it is 21 nM.
Consider `Cc1cnc(Nc2cncnc2)c(C(=O)Nc2cc(-c3ccccn3)nn2CCO)n1` [Example 36, 6-Methyl-3-(pyrimidin-5-ylamino)-pyrazine-2-carboxylic acid [2-(2-hydroxy-ethyl)-5-pyridin-2-yl-2H-pyrazol-3-yl]-amide], for which the 50% inhibitory concentration (IC50) amounted to 4 nM.
The figure for `Cn1cncc1Cn1nc(-c2ccccn2)cc1NC(=O)c1nc(C2CC2)ccc1Nc1cncnc1` [Example 37, 6-Cyclopropyl-3-(pyrimidin-5-ylamino)-pyridine-2-carboxylic acid [2-(3-methyl-3H-imidazol-4-ylmethyl)-5-pyridin-2-yl-2H-pyrazol-3-yl]-amide] is 2 nM.
To `COCCn1nc(-c2ccccn2)cc1NC(=O)c1nc(C2CC2)ccc1Nc1cncnc1` [Example 38, 6-Cyclopropyl-3-(pyrimidin-5-ylamino)-pyridine-2-carboxylic acid [2-(2-methoxy-ethyl)-5-pyridin-2-yl-2H-pyrazol-3-yl]-amide] belongs under 1 nM; to `Cn1nc(-c2ccc(Cl)cn2)cc1NC(=O)c1nc(C2CC2)ccc1Nc1cncnc1` [Example 39, 6-Cyclopropyl-3-(pyrimidin-5-ylamino)-pyridine-2-carboxylic acid [5-(5-chloro-pyridin-2-yl)-2-methyl-2H-pyrazol-3-yl]-amide], 3 nM; to `Cn1nc(-c2ccc3ccccc3n2)cc1NC(=O)c1nc(C2CC2)ccc1Nc1cncnc1` [Example 40, 6-Cyclopropyl-3-(pyrimidin-5-ylamino)-pyridine-2-carboxylic acid (2-methyl-5-quinolin-2-yl-2H-pyrazol-3-yl)-amide], under 1 nM.
To `Cn1nc(-c2cccc(Cl)n2)cc1NC(=O)c1nc(C2CC2)ccc1Nc1cncnc1` [Example 41, 6-Cyclopropyl-3-(pyrimidin-5-ylamino)-pyridine-2-carboxylic acid [5-(6-chloro-pyridin-2-yl)-2-methyl-2H-pyrazol-3-yl]-amide] belongs 3 nM; to `CN(C)CCn1nc(NC(=O)c2nc(C3CC3)ccc2Nc2cncnc2)cc1-c1ccccn1` [Example 42, 6-Cyclopropyl-3-(pyrimidin-5-ylamino)-pyridine-2-carboxylic acid [1-(2-dimethylamino-ethyl)-5-pyridin-2-yl-1H-pyrazol-3-yl]-amide], 24 nM; to `CN1CCC(n2nc(-c3ccccn3)cc2NC(=O)c2nc(C3CC3)ccc2Nc2cncnc2)CC1` [Example 43, 6-Cyclopropyl-3-(pyrimidin-5-ylamino)-pyridine-2-carboxylic acid [2-(1-methyl-piperidin-4-yl)-5-pyridin-2-yl-2H-pyrazol-3-yl]-amide], 4 nM.
